Source: patent US20220326125A1, “BIOLOGICAL TISSUE STAINING REAGENT, BIOLOGICAL TISSUE STAINING KIT AND BIOLOGICAL TISSUE STAINING METHOD” (CUBICStars, Inc., priority 2019, published 2022)

How the values were obtained:
[1] = system: defatted mouse cerebral hemisphere; test: 3D immunostaining with combinations of additives; conditions: Immunostaining Buffer E; antibodies against synaptophysin, Gad67, Dat or Th; 32° C., 3 to 4 days
Description: Fab-anti-mouse or rabbit IgG against each primary antibody, labeled with Alexa 594 (manufactured by Jackson ImmunoResearch laboratories; Fab-anti-mouse IgG1-[…] (#115-587-185), Fab-anti-mouse IgG2a-[…] (#115-587-186), or Fab-anti-rabbit IgG-[…] (#111-587-008), added such that the weight ratio to each primary antibody was about 1:0.75); and predetermined concentrations of additives (two or three selected from #0854, #1086, and #0609 described in FIG. 1A and #0146 described in FIG. 1B).

[2] = system: defatted column of the cerebral cortex area of pig brain; test: Evaluation of antibody penetration efficiency (peak-bottom ratio), anti-synaptophysin antibody; conditions: 2.5% by weight in Immunostaining Buffer E vs distilled water, 32° C., 1 day
Protocol: After the defatting treatment, the sample was washed with PBS, and soaked in Immunostaining Buffer E that was mixed with a mouse monoclonal anti-synaptophysin antibody (manufactured by Medical & Biological Laboratories Co., Ltd.; #D073-3; 20 μg/mL) and Fab-anti-mouse IgG1 labeled with Alexa 594 (added such that the weight ratio to the anti-synaptophysin antibody was about 1:1) and further supplemented with 2.5% by weight Quadrol or the same amount of distilled water. The sample was stained at 32° C. for 1 day. After the staining, the sample was washed with PB-Triton and PB, and a frozen section in the central portion of the sample was prepared.
FIGS. 18A and B show images of the frozen sections of the samples stained with Immunostaining Buffer E to which distilled water or Quadrol, respectively, was added. […] For quantification, a representative area showing almost uniform staining of the left and right sides of the column was selected using a micrographic image, and a brightness-value graph was prepared. In the graph, the ratio (peak-bottom ratio) of the maximum brightness (peak) in the left and right to the minimum brightness (bottom) in the sample was high in the sample to which Quadrol was not added. […] Thus, using the peak-bottom ratio as a quantitative index of penetrability of an antibody into a tissue, a search was carried out for compounds as follows. […]

Compound | penetration-promoting effect for the antibodies / staining performance inside the sample [1] | penetration of the antibody [2]
CN(C)CCOCCO [#0146, 2-[2-(Dimethylamino)ethoxy]ethanol] | even stronger penetration-promoting effect | –
CC(O)CN(CCN(CC(C)O)CC(C)O)CC(C)O (centres unmarked) [Quadrol, N,N,N′,N′-tetrakis(2-hydroxypropyl)ethylenediamine] | – | penetration of the antibody was effectively increased
